Measured values published in ChEMBL document CHEMBL3862039 (ACS Med Chem Lett, 2016).
Positions count from the first letter of the chain named. Activity calls are given as the source filed them. No cut-off for these calls is given here.

Assays:
[1] = target: T1, Androgen receptor (Homo sapiens) (UniProt P10275); assay: Antagonist activity at AR in human LNCAP cells assessed as suppression of DHT-induced receptor transcriptional activity at 500 nM after 24 hrs by dual luciferase reporter gene assay; type: cell-based
T1 sequence (whole entry): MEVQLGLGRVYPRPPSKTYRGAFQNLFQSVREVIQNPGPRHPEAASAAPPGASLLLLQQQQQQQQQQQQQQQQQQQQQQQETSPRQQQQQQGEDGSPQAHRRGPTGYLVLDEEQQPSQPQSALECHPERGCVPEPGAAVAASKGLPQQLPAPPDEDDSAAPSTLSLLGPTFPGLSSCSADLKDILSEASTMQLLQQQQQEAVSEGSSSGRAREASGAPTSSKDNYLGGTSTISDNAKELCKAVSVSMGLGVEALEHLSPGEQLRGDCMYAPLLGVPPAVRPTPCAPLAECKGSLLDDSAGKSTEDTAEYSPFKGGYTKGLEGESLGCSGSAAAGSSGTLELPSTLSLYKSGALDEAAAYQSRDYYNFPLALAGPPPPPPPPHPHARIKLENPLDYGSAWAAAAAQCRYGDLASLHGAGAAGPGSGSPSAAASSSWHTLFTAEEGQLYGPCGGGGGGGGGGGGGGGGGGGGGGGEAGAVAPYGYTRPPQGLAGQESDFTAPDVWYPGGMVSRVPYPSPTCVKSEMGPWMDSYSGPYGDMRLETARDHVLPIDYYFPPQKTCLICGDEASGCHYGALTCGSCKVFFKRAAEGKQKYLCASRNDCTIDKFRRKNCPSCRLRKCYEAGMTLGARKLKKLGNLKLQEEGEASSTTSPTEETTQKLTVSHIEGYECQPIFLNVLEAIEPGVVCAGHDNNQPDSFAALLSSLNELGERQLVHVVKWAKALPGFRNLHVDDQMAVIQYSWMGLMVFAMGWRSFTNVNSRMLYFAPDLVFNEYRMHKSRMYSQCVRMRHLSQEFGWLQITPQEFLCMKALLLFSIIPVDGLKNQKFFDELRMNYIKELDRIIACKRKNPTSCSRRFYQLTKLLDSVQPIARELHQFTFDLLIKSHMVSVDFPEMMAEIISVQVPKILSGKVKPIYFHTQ

[2] = target: T1, Androgen receptor (Homo sapiens); conditions: LNCaP, at 5 µM
Description: Antagonist activity at AR in human LNCAP cells assessed as suppression of DHT-induced receptor transcriptional activity at 5 uM after 24 hrs by dual luciferase reporter gene assay

[3] = test system: PC-3; assay: Agonist activity at AR W741C/T877A double mutant (unknown origin) expressed in human PC3 cells assessed as receptor transactivation at 5 uM after 24 hrs by PSA-luciferase reporter gene assay; type: cell-based
[4] = test system: LNCaP; assay: Cytotoxicity against human LNCAP cells assessed as cell growth inhibition after 72 hrs by MTT assay; type: functional, cell-based
[5] = target: T2, Androgen receptor (Rattus norvegicus, UniProt P15207); assay: (§1) Displacement of fluormone-DHT green from His/GST-tagged rat AR ligand binding domain after 4 to 8 hrs by fluorescence polarization assay
T2 sequence (P15207 whole entry): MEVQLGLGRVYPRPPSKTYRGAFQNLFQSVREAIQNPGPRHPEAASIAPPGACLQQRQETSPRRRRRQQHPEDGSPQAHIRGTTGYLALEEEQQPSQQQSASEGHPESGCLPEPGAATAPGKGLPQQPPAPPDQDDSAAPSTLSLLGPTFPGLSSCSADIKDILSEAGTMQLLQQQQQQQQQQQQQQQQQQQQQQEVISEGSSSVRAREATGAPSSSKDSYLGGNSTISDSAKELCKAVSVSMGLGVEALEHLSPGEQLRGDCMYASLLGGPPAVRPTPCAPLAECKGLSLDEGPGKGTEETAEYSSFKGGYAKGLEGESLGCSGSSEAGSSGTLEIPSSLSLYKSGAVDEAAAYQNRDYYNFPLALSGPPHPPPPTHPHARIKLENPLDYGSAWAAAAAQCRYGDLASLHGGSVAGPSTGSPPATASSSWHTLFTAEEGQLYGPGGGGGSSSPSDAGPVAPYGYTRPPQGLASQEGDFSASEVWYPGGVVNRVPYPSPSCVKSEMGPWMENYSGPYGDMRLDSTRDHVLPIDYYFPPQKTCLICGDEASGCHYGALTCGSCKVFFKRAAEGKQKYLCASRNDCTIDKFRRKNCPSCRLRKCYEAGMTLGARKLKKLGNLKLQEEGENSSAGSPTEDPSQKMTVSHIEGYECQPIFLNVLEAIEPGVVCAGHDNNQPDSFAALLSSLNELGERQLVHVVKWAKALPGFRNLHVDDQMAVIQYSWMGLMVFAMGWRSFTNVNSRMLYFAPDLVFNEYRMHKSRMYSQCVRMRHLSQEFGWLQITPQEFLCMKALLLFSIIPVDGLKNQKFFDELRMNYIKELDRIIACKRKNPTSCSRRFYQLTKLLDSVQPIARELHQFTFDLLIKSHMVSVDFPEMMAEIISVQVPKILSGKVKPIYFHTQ

[6] = target: T3, Androgen receptor (Rattus norvegicus) (UniProt P15207); assay: as §1
T3 sequence (whole entry): T2 sequence (P15207 whole entry)

[7] = test system: PC-3; assay: Cytotoxicity against human PC3 cells assessed as cell growth inhibition after 72 hrs by MTT assay; type: functional, cell-based
[8] = test system: T4, Androgen receptor (Homo sapiens), P10275 [F877L]; assay: (§2) Antagonist activity at AR F876L mutant (unknown origin) expressed in human PC3 cells assessed as inhibition of DHT-induced receptor transactivation after 24 hrs by PSA-luciferase reporter gene assay; type: cell-based; conditions: PC-3
T4 sequence (whole entry): T1 sequence (whole entry) with F877L

[9] = target: Androgen receptor (Homo sapiens, UniProt P10275, F877L); assay: as §2; type: cell-based, PC-3
[10] = test system: T4, Androgen receptor (Homo sapiens), P10275 [F877L]; assay: Antagonist activity at AR F876L mutant (unknown origin) transfected in human PC3 cells assessed as suppression of DHT-induced receptor transcriptional activity at 500 nM after 24 hrs by PSA-luciferase reporter gene assay; type: cell-based; conditions: PC-3
[11] = target: Androgen receptor (Homo sapiens, UniProt P10275, T878A); assay: (§3) Antagonist activity at AR T877A mutant (unknown origin) transfected in human PC3 cells assessed as inhibition of DHT-induced receptor transcriptional activation after 24 hrs by PSA-luciferase reporter gene assay; type: cell-based, PC-3
[12] = test system: Androgen receptor (Homo sapiens), P10275 [T878A]; assay: as §3; type: cell-based; conditions: PC-3
[13] = cells; conditions: Homo sapiens, PC-3, 24 h
Description: Antagonist activity at AR W741C/T877A double mutant (unknown origin) transfected in human PC3 cells assessed as inhibition of DHT-induced receptor transcriptional activation after 24 hrs by PSA-luciferase reporter gene assay

[14] = target: T1, Androgen receptor (Homo sapiens); assay: Antagonist activity at AR in human LNCAP cells assessed as downregulation of PSA mRNA levels at 500 nM after 24 hrs in presence of DHT by RT-PCR analysis; type: cell-based
[15] = target: T5, Androgen receptor (Homo sapiens, UniProt P10275); assay: (§4) Antagonist activity at wild type AR in human PC3 cells assessed as suppression of DHT-induced receptor transcriptional activation after 24 hrs by PSA-luciferase reporter gene assay; type: cell-based, PC-3
T5 sequence (P10275 whole entry): T1 sequence (whole entry)

[16] = target: T1, Androgen receptor (Homo sapiens); assay: as §4; type: cell-based; conditions: PC-3
[17] = target: T1, Androgen receptor (Homo sapiens); assay: Antagonist activity at AR in human LNCAP cells assessed as downregulation of PSA mRNA levels at 5 uM after 24 hrs in presence of DHT by RT-PCR analysis; type: cell-based
[18] = target: T1, Androgen receptor (Homo sapiens); assay: Antagonist activity at AR in human LNCAP cells assessed as downregulation of AR protein expression after 24 hrs by Western blot analysis; type: cell-based

Sequence of Androgen receptor (Homo sapiens, UniProt P10275, F877L) (P10275 whole entry F877L): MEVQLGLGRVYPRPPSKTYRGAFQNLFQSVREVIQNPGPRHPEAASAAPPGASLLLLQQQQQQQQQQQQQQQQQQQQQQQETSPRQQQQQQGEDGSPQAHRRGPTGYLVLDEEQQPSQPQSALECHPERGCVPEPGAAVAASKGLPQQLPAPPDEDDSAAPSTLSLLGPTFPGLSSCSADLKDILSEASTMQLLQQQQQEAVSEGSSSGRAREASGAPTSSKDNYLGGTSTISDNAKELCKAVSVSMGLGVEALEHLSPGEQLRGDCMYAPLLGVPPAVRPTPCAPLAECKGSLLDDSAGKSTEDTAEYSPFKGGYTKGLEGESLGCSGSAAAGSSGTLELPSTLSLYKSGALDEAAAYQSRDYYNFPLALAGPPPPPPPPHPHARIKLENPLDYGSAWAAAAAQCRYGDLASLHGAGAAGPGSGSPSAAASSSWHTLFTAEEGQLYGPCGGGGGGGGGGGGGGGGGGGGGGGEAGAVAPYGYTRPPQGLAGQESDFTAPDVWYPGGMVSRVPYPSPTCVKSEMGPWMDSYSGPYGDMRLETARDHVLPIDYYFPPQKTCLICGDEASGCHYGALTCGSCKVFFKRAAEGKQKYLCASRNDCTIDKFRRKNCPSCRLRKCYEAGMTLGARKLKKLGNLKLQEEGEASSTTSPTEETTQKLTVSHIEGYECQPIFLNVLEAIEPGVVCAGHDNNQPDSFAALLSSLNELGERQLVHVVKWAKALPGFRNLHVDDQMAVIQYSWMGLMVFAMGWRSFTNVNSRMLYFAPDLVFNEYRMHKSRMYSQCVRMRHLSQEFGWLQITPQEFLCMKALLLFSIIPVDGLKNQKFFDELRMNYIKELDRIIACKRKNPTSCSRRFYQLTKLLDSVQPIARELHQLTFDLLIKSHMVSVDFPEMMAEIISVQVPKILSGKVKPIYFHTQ
Sequence of Androgen receptor (Homo sapiens), P10275 [T878A] (P10275 whole entry T878A): as the sequence (P10275 whole entry F877L) above, with L877F, T878A counted along it
Sequence of Androgen receptor (Homo sapiens, UniProt P10275, T878A) (P10275 whole entry T878A): as the sequence (P10275 whole entry F877L) above, with L877F, T878A counted along it

Compound: CC(C)[C@]12O[C@H]1[C@@H]1O[C@@]13[C@@]1(C)CCC4=C(COC4=O)[C@@H]1C[C@@H]1O[C@@]13C2=O
- inhibition [1]: Active
- inhibition [2]: Active

Compound: CC(C)[C@]12O[C@H]1[C@@H]1O[C@]13[C@]1(O[C@H]1C[C@H]1C4=C(CC[C@@]13C)C(=O)OC4)[C@@H]2O
- inhibition [1]: Active
- inhibition [2]: Active

Compound: CC(O)(CS(=O)(=O)c1ccc(F)cc1)C(=O)Nc1ccc(C#N)c(C(F)(F)F)c1 (stereo not given)
- Activity [3]: Active

Compound: CC1(C)[C@@H](O)CC[C@]2(C)[C@H]3CC=C4[C@@H]5C[C@@]6(C)C[C@H](OC6=O)[C@]5(C)CC[C@@]4(C)[C@]3(C)CC[C@@H]12
- inhibition [2]: Active

Compound: CC1=C(O)C(=O)C=C2C1=CC=C1[C@@]2(C)CC[C@@]2(C)[C@@H]3C[C@](C)(C(=O)O)CC[C@]3(C)CC[C@]12C
- inhibition [2]: Active

Compound: C[C@@]1(C(=O)O)CC[C@]2(C)CC[C@]3(C)C4=CC(=O)c5c(cc(O)c(O)c5C=O)[C@]4(C)CC[C@@]3(C)[C@@H]2C1
- inhibition [2]: Active

Compound: CC(C)c1ccc2c(c1O)CC[C@H]1C3=C(CC[C@]21C)C(=O)OC3 [TRIPTOPHENOLIDE]
- inhibition [1]: Active
- growth inhibition (GI) [4]: Dose-dependent effect
- IC50 [5]: 467 nM
- inhibition [6]: Dose-dependent effect
- growth inhibition (GI) [7]: Active
- inhibition [8]: Dose-dependent effect
- IC50 [9]: 480 nM
- inhibition [10]: Active
- IC50 [11]: 388 nM
- inhibition [12]: Dose-dependent effect
- IC50 [13]: 437 nM
- inhibition [14]: Active
- inhibition [2]: Active
- IC50 [15]: 260 nM
- inhibition [16]: Dose-dependent effect
- inhibition [17]: Active
- inhibition [18]: Dose-dependent effect
